We go through 4 compounds from paper PMC4306533, “Distinct Features of Cap Binding by eIF4E1b Proteins” (Journal of Molecular Biology, 2015).

pIC50: −log10 of the molar value. Where two headings read alike, the source gives them in different places.

The target in assay [1] is T1, heIF4E1a (Homo sapiens, UniProt P06730).
T1 construct: made in house; host or cells: E. coli Rosetta2(DE3)
Kind of assay: time-synchronized fluorescence titration of cap analogue binding. The source says:
(§1) The time-synchronized fluorescence titration method, widely used to determine the affinity constants of cap–eIF4E complexes [[20,22–26]], measures the quenching of the intrinsic fluorescence of tryptophan residues due to cap binding (Fig. S2). Knowledge of the equilibrium association constant Kas enables the calculation of the free-energy changes involved in the interaction between eIF4E and ligand, according to the standard equation ΔG° = − RTlnKas.
(§2) For human eIF4E1a and eIF4E1b and also for Xenopus eIF4E1a and its mutated forms, measurements were carried out using 0.1 μM protein in 50 mM Hepes/KOH (pH 7.2), 134.5 mM KCl, 0.5 mM EDTA and 1 mM DTT. For Xenopus eIF4E1b(ΔN27), the concentration was 0.2 μM and glycerol was added to the buffer to 10% (v/v) final concentration. […] Fluorescence of measured samples was excited at 280 nm (2.5 nm bandwidth) and detected at 337 nm or 330 nm (4 nm bandwidth), thus reducing the signal originated from the free cap analogues. Measurements were carried out on a LS-55 spectrofluorometer (Perkin Elmer Co.) using freshly prepared proteins, and the fluorescence intensities were corrected for sample dilution and the inner filter effect.
(§3) Equilibrium association constants (Kas) were determined by fitting the theoretical dependence of fluorescence intensity on the total concentration of the cap analogue to the experimental data points, according to the equation described previously (see Ref. [22] and Fig. S2c).
(§4) The final Kas was calculated as a weighted average of 2–6 independent titrations with the weights taken as the reciprocal of the numerical standard deviation squared. Numerical, nonlinear least-squares regression analysis was performed using Origin 6.0 (Microcal Software Inc.). Obtained association constants were used to determine the Gibbs free energy according to the standard equation ΔG° = − RTlnKas.

The test system of assay [2] is XeIF4E1a. The description is as above. Particulars: without glycerol. The arrangement: species or system Xenopus laevis.
Source text: as §1, §2, §3, §4

The target in assay [3] is T2, heIF4E1b (Homo sapiens, UniProt A6NMX2).
T2 construct: made in house; host or cells: E. coli Rosetta2(DE3)
T2 sequence (A6NMX2 1-242): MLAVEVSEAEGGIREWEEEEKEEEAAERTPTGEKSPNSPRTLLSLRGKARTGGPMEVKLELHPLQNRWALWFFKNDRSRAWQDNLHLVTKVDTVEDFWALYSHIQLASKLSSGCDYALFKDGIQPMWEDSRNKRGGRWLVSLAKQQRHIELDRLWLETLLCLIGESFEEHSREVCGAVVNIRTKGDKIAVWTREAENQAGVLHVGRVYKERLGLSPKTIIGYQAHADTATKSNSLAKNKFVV
Described as above. Particulars: for Kas − glycerol heIF4E1b: equilibrium association constant, buffer without glycerol.
Source text: as §1, §2, §3, §4

In assay [4] the target is T3, XeIF4E1a (Xenopus laevis, UniProt P48597).
T3 construct: made in house; host or cells: E. coli Rosetta2(DE3)
T3 sequence (P48597 whole entry): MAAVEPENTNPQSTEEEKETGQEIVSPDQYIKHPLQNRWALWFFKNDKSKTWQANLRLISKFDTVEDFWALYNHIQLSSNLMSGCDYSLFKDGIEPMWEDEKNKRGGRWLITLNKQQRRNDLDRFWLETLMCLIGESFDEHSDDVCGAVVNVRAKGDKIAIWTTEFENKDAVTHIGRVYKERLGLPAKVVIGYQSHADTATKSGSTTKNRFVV
Described as above. Particulars: for Kas + glycerol XeIF4E1a / Kas − glycerol XeIF4E1a: equilibrium association constant; for Kas − glycerol XeIF4E1a: buffer without glycerol.
Source text: as §1, §2, §3, §4

The test system of assay [5] is heIF4E1b. Described as above. The arrangement: species or system human. Particulars: without glycerol.
Source text: as §1, §2, §3, §4

The target of the next assay is T4, X4E1a1’ (K102R) (Xenopus laevis, UniProt P48597, K102R).
T4 construct: made in house; host or cells: E. coli Rosetta2(DE3)
T4 sequence (P48597 whole entry K102R): as the sequence (P48597 whole entry) above, with K102R counted along it
Kind of assay: fluorescence titration, XeIF4E1a mutant. Type of assay: binding. Particulars: mutant (K102R) of XeIF4E1a.
Source text: (§5) We tested the effect on cap-binding activity of these positions in the fluorescence assay with six mutated recombinant versions of Xenopus eIF4E1a (Fig. S4). The amino acids were introduced in XeIF4E1a sequentially in the order: E101S/K102R/S195A/M82S/T206L/T207S (numbering of the XeIF4E1a sequence is shifted backward by 4 amino acids relative to XeIF4E1b). […] The biggest contribution to the weaker cap binding of XeIF4E1a, in each case about 20%, resulted from changing Glu101 to Ser and Thr206 to Leu coupled with Thr207 to Ser, with the remaining mutations having only minor effects. […] Glu101 is a solvent-accessible amino acid and is proximal to Trp98 in the S3-S4 loop. […] Attenuation of the cap-binding affinity of XeIF4E1a resulting from mutating Thr206 and Thr207 is consistent with our results mentioned above showing significant influence of C-terminal loop residues on binding phosphate and the second nucleotide.
(§6) For human eIF4E1a and eIF4E1b and also for Xenopus eIF4E1a and its mutated forms, measurements were carried out using 0.1 μM protein in 50 mM Hepes/KOH (pH 7.2), 134.5 mM KCl, 0.5 mM EDTA and 1 mM DTT. For Xenopus eIF4E1b(ΔN27), the concentration was 0.2 μM and glycerol was added to the buffer to 10% (v/v) final concentration. […] The gradually increasing concentration of cap analogue quenches protein fluorescence without shifting the spectrum maximum, while at high concentrations, the fluorescence signal of free cap analogue dominates over the fluorescence from other solution components including free eIF4E and eIF4E in complex with cap (Fig. S2a). Fluorescence of measured samples was excited at 280 nm (2.5 nm bandwidth) and detected at 337 nm or 330 nm (4 nm bandwidth), thus reducing the signal originated from the free cap analogues. Measurements were carried out on a LS-55 spectrofluorometer (Perkin Elmer Co.) using freshly prepared proteins, and the fluorescence intensities were corrected for sample dilution and the inner filter effect.
(§7) Equilibrium association constants (Kas) were determined by fitting the theoretical dependence of fluorescence intensity on the total concentration of the cap analogue to the experimental data points, according to the equation described previously (see Ref. [22] and Fig. S2c). […] Along with Kas and the concentration of the active protein [P0^act], other parameters such as fL and ∆f = fPact − fPL are also gained from the fit, where fL represents the fluorescence efficiency of free cap analogue and ∆f represents the difference between the fluorescence efficiencies of the apo-protein and the complex (Fig. S2c).
as §4

For assay [6], the target named is T5, X4E1a3 (E101S/K102R/S195A) (Xenopus laevis, UniProt P48597, E101S/K102R/S195A).
T5 construct: made in house; host or cells: E. coli Rosetta2(DE3)
T5 sequence (P48597 whole entry E101S/K102R/S195A): as the sequence (P48597 whole entry) above, with E101S, K102R, S195A counted along it
Kind of assay: fluorescence titration, XeIF4E1a mutant. The settings on record: mutant (E101S/K102R/S195A) of XeIF4E1a. Type of assay: binding.
Source text: as §5, §6, §7, §4

Assay [7] addresses T6, X4E1a4 (E101S/K102R/S195A/M82S) (Xenopus laevis, UniProt P48597, E101S/K102R/M82S/S195A).
T6 construct: made in house; host or cells: E. coli Rosetta2(DE3)
Put plainly: fluorescence titration, XeIF4E1a mutant. It counts as binding. The settings on record: mutant (E101S/K102R/S195A/M82S) of XeIF4E1a.
Source text: as §5, §6, §7, §4

A further assay deals with T7, X4E1a2 (E101S/K102R) (Xenopus laevis, UniProt P48597, E101S/K102R).
T7 construct: made in house; host or cells: E. coli Rosetta2(DE3)
T7 sequence (P48597 whole entry E101S/K102R): as the sequence (P48597 whole entry) above, with E101S, K102R counted along it
Kind of assay: fluorescence titration, XeIF4E1a mutant. Type of assay: binding. The settings on record: mutant (E101S/K102R) of XeIF4E1a.
Source text: as §5, §6, §7, §4

Another assay addresses T8, X4E1a1 (E101S) (Xenopus laevis, UniProt P48597, E101S).
T8 construct: made in house; host or cells: E. coli Rosetta2(DE3)
Kind of assay: fluorescence titration, XeIF4E1a mutant. It counts as binding. The settings on record: mutant (E101S) of XeIF4E1a.
Source text: as §5, §6, §7, §4

Assay [8] addresses T9, X4E1a6 (E101S/K102R/S195A/M82S/T206L/T207S) (Xenopus laevis, UniProt P48597, E101S/K102R/M82S/S195A/T206L/T207S).
T9 construct: made in house; host or cells: E. coli Rosetta2(DE3)
Put plainly: fluorescence titration, XeIF4E1a mutant. Type of assay: binding. The settings on record: mutant (E101S/K102R/S195A/M82S/T206L/T207S) of XeIF4E1a.
Source text: as §5, §6, §7, §4

The subject of a further assay is XeIF4E1bΔN27. Put plainly: time-synchronized fluorescence titration of cap analogue binding. The settings on record: 10% glycerol; for Kas + glycerol XeIF4E1bΔN27: equilibrium association constant. More on the design: species or system Xenopus laevis.
Source text: as §1, §2, §3, §4

Assay [9] concerns the target T1, heIF4E1a. The arrangement: method as in PMID 17369309. Particulars: equilibrium association constant; buffer without glycerol; footnote b; cited from earlier work.
The test system of another assay is in vitro translation. The arrangement: method as in PMID 10387101. The settings on record: Cai et al.; read-out: IC50 (inhibitory potency); cited from earlier work.
Setting [10] is: change relative to m^7GTP, without glycerol.

Usually pIC50 stands for the negative decadic logarithm of the IC50, by convention in mol/L.

T1 sequence (P06730 whole entry): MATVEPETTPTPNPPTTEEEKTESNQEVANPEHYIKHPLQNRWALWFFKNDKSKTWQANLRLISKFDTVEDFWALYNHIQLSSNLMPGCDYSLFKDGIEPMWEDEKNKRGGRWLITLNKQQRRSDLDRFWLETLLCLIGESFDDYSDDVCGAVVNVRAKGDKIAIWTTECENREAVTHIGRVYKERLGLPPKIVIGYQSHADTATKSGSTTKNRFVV
T9 sequence (P48597 whole entry M82S/E101S/K102R/S195A/T206L/T207S): as the sequence (P48597 whole entry) above, with M82S, E101S, K102R, S195A, T206L, T207S counted along it
T6 sequence (P48597 whole entry M82S/E101S/K102R/S195A): as the sequence (P48597 whole entry) above, with M82S, E101S, K102R, S195A counted along it
T8 sequence (P48597 whole entry E101S): as the sequence (P48597 whole entry) above, with E101S counted along it

`Cn1c[n+]([C@@H]2O[C@H](COP(=O)(O)OP(=O)(O)OP(=O)(O)OP(=O)(O)O)[C@@H](O)[C@H]2O)c2nc(N)[nH]c(=O)c21` [m^7Gp4]: the “Kas − glycerol heIF4E1a” value on heIF4E1a [1] (equilibrium association constant, buffer without glycerol) was 419 ± 23 μM^− 1. Further, in the assay on XeIF4E1a [2], the “Ratio Kas (h4E1a) to Kas (X4E1a)” value was 1.57. Also, the “Kas − glycerol heIF4E1b” value at heIF4E1b [3] is listed as 89.6 ± 4.0 μM^− 1. Moreover, at XeIF4E1a [4] (10% glycerol), the “Kas + glycerol XeIF4E1a” value was 151.1 ± 8.6 μM^− 1. The “Kas − glycerol XeIF4E1a” value on XeIF4E1a [4] was found to be 268 ± 10 μM^− 1. In addition, the “Ratio Kas (h4E1a) to Kas (h4E1b)” value in the assay on heIF4E1b [5] is given as 4.68. Moreover, the “Kas X4E1a1’” value at X4E1a1’ (K102R) came to 232.5 ± 8.3 µM⁻¹. In addition, the “Kas X4E1a3” value in assay [6] was found to be 170 ± 24 µM⁻¹. For the same compound, the “Kas X4E1a4” value in [7] came out at 206 ± 12 µM⁻¹. In addition, at X4E1a2 (E101S/K102R), the “Kas X4E1a2” value amounted to 202.5 ± 6.7 µM⁻¹. For the same compound, the “Kas X4E1a1” value on X4E1a1 (E101S) stood at 218 ± 39 µM⁻¹. For the same compound, in [8], the “Kas X4E1a6” value worked out at 143 ± 8 µM⁻¹. Further, in the assay with XeIF4E1bΔN27, the “Ratio Kas (X4E1a) to Kas (X4E1bΔN27)” value was found to be 3.51 and the “Kas + glycerol XeIF4E1bΔN27” value is recorded as 43.0 ± 2.0 μM^− 1.
Take `Cn1c[n+]([C@@H]2O[C@H](COP(=O)(O)OP(=O)(O)OP(=O)(O)OC[C@H]3O[C@@H](n4cnc5c(N)ncnc54)[C@H](O)[C@@H]3O)[C@@H](O)[C@H]2O)c2nc(N)[nH]c(=O)c21` [m^7GpppA]: the “Kas − glycerol heIF4E1a” value at heIF4E1a [9] was 3.97 ± 0.21 ^b μM^− 1. The “ΔΔG^o − glycerol heIF4E1a” value on heIF4E1a [1] (setting [10]) worked out at 1.658 ± 0.053 kcal/mol. In the assay with XeIF4E1a [2], the “Ratio Kas (h4E1a) to Kas (X4E1a)” value amounted to 1.97. Besides, the “ΔΔG^o − glycerol heIF4E1b” value on heIF4E1b [3] (setting [10]) is recorded as 1.352 ± 0.039 kcal/mol. For the same compound, the “Kas − glycerol heIF4E1b” value at heIF4E1b [3] was 2.158 ± 0.053 μM^− 1. The “ΔΔG^o + glycerol XeIF4E1a” value on XeIF4E1a [4] (change relative to m^7GTP, 10% glycerol) stood at 1.717 ± 0.033 kcal/mol. Also, the “ΔΔG^o − glycerol XeIF4E1a” value at XeIF4E1a [4] (setting [10]) is recorded as 1.779 ± 0.029 kcal/mol. Also, the “Kas + glycerol XeIF4E1a” value at XeIF4E1a [4] (10% glycerol) is 1.22 ± 0.053 μM^− 1. Further, at XeIF4E1a [4], the “Kas − glycerol XeIF4E1a” value is listed as 2.015 ± 0.028 μM^− 1. Also, the “Ratio Kas (h4E1a) to Kas (h4E1b)” value in the assay on heIF4E1b [5] is reported as 1.84. The “Kas X4E1a3” value in assay [6] worked out at 1.57 ± 0.21 µM⁻¹. For the same compound, the “Kas X4E1a4” value in assay [7] came out at 1.48 ± 0.11 µM⁻¹. The “Kas X4E1a6” value in assay [8] worked out at 1.33 ± 0.11 µM⁻¹. In the assay on XeIF4E1bΔN27, the “Ratio Kas (X4E1a) to Kas (X4E1bΔN27)” value came to 1.99 and the “Kas + glycerol XeIF4E1bΔN27” value was 0.615 ± 0.042 μM^− 1. Further, the “ΔΔG^o + glycerol XeIF4E1bΔN27” value in the assay on XeIF4E1bΔN27 (change relative to m^7GTP) stood at 1.479 ± 0.050 kcal/mol.
For `Nc1nc2c(c(=O)[nH]1)n(Cc1ccc(Cl)cc1)c[n+]2[C@@H]1O[C@H](COP(=O)([O-])OP(=O)(O)O)[C@@H](O)[C@H]1O` [p-Cl-bn^7GDP], in the assay on in vitro translation, the pIC50 was 5.17.
In the case of `Nc1nc2c(c(=O)[nH]1)[n+](Cc1ccc(Cl)cc1)cn2[C@@H]1O[C@H](COP(=O)([O-])O)[C@@H](O)[C@H]1O` [p-Cl-bn^7GMP], in the assay with in vitro translation, the pIC50 was 4.29.
